Results reported in US12447151B2, “Alkyne derivative, preparation method for same, and uses thereof” (ZHEJIANG HISUN PHARMACEUTICAL CO., LTD., priority 2019, dated 2025).

Assays:
PI3Kα(C2C12) = PI3Kα(C2C12) (Mus musculus (Mouse), UniProt P42337); test: Cell activity of PI3K subtypes, AlphaLISA p-AKT (pS473); type: cell-based; conditions: C2C12 cells, IGF-1 stimulated
Source text: (§1) The following method was used to determine the degree of inhibition of the compounds of the present invention on activity of PI3Kα, PI3Kβ, PI3Kγ, and PI3Kδ kinase in different cells. The AlphaLISA SureFire Ultra p-AKT1/2/3 (pS473) kit (#ALSU-PAKT-B500) of PE company was used in the method. The above kit used AlphaLISA technology, using donor and acceptor beads to detect the interaction of biomolecules, to detect the content of p-AKT (pS473), reflecting the intensity of inhibition of the compounds on PI3Kα, PI3Kβ, PI3Kγ and PI3Kδ at the cell level. For detailed experimental operations, please refer to the kit instructions.
(§2) The experimental procedure was briefly described as follows: the experiment was carried out in a 384-well plate using a Multidrop dispenser (Thermo, #836-4049), using different cells for different PI3K subtypes (PI3Kα: C2C12 cells (myoblasts); PI3Kβ: PC-3 cells (human prostate cancer cells); PI3Kγ: Raw264.7 cells (monocyte macrophages); PI3Kδ: Raji cells (lymphoma cells)). 6 μL of the corresponding cells were transferred to the wells of a 384-well plate. After centrifugation 500 RPM for 30 seconds, the plate was placed in a 37° C., 5% CO2 incubator for 2 hours. The test compound was first dissolved in DMSO to prepare a 10 mM stock solution, which was diluted 4-fold with DMSO. 30 nL was transferred by Echo (Labcyte, #550) to each well (final concentration is 10000 nM-0.2 nM), and incubated for 30 minutes. Then for C2C12 cells used for PI3Kα subtype, 2 uL IGF-1 (R&D, #291-G1-200, final concentration 1200 ng/mL) was added and incubated for 20 minutes. For PC-3 cells used for PI3Kβ subtype, 2 μL LPA (Sigma, #L7260, final concentration 15 ug/mL) was added and incubated for 20 minutes. For Raw264.7 cells used for PI3Kγ subtype, 2 uL C5a (Biotang, #RPR9899, final concentration 80 ng/mL) was added and incubated for 5 minutes. For Raji cells used for PI3Kδ subtype, 2 μL IgM (Jackson ImmunoResearch, #109-006-129, final concentration 3 ug/mL) was added and incubated for 10 minutes. After the incubation, AlphaLISA SureFire Ultra p-AKT1/2/3(pS473) kit was used to determine the AlphaLISA signal. The kit determination method was briefly described as follows: 20 μL Lysis Buffer was used to lyse the cells for 10 minutes. Then 5 uL acceptor mix and 5 uL donor mix were added to a 384-well plate. The plate was incubated with shaking at room temperature for 2 hours. Envision (PE, #2104) was used to read AlphaLISA signal. By comparing with the signal intensity ratio of the control group (0.5% DMSO), the percentage inhibition rate of the compound at each concentration was calculated. The GraphPad Prism 5 software was used to perform nonlinear regression analysis of the compound concentration logarithmic value vs. the inhibition rate to obtain the IC50 values of the compounds, shown in Table 3.

PI3Kβ(PC-3) = PI3Kβ(PC-3) (Homo sapiens (Human), UniProt P42338); test: as above; type: cell-based; conditions: PC-3 cells, LPA stimulated
Source text: as §1, §2

PI3Kγ(Raw264.7) = PI3Kγ(Raw264.7) (Mus musculus (Mouse), UniProt Q9JHG7); test: as above; type: cell-based
PI3Kγ(Raw264.7), sequence (Q9JHG7 whole entry): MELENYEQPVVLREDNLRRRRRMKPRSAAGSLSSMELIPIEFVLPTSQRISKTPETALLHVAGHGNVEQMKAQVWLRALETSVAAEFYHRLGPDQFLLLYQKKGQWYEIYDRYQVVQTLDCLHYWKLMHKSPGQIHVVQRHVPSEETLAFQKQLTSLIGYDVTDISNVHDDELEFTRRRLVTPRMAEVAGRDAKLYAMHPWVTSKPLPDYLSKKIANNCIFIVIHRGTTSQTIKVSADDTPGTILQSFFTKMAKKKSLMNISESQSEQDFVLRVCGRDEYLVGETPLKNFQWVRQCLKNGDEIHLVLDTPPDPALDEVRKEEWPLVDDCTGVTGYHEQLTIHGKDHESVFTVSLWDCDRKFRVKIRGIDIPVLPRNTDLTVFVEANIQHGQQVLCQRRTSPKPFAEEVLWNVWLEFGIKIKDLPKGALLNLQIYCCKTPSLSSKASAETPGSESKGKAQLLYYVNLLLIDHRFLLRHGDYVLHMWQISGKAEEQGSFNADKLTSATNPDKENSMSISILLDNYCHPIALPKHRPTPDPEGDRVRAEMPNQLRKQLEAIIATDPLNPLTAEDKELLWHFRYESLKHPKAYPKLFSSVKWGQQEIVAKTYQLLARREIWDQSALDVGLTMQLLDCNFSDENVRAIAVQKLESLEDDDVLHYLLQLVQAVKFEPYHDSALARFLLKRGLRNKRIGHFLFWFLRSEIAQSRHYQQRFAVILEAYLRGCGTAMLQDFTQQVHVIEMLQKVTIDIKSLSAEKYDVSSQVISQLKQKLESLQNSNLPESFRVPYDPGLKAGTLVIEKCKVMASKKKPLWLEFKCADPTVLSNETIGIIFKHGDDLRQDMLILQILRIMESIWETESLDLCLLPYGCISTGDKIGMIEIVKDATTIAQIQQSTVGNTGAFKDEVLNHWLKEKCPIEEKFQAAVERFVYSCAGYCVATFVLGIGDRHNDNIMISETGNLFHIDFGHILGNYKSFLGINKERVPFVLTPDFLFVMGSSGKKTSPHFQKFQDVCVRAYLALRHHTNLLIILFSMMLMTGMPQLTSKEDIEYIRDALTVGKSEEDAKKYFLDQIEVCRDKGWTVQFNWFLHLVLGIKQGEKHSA
PI3Kγ(Raw264.7), sequence (Q5SW28 whole entry partner): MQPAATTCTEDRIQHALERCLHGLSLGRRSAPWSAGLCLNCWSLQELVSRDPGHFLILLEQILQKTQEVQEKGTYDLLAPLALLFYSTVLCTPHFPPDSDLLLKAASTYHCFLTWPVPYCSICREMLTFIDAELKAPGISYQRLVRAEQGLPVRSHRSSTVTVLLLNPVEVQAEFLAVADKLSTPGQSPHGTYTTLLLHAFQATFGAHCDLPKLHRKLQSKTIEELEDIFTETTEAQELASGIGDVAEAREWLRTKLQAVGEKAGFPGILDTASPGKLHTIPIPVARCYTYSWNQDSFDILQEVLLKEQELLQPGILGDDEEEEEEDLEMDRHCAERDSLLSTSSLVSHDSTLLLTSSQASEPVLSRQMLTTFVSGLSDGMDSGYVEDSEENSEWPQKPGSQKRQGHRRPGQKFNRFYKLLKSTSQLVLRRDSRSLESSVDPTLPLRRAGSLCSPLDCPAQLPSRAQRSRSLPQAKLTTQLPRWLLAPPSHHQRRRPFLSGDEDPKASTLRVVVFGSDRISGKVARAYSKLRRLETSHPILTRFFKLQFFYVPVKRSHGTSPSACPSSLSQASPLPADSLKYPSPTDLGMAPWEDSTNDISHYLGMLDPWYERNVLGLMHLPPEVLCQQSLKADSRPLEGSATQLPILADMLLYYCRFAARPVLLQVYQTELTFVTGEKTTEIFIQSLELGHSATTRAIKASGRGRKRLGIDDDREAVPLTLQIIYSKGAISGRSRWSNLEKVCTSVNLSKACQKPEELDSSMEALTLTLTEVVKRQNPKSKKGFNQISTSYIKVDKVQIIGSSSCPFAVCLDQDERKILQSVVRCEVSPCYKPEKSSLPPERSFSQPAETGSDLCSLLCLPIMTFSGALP
Source text: as §1, §2

PI3Kδ(Raji) = PI3Kδ(Raji) (Homo sapiens (Human), UniProt O00329); test: as above; type: cell-based; conditions: Raji cells, IgM stimulated
Source text: as §1, §2

[1] = test system: CT26 mouse colon cancer cell subcutaneously transplanted tumor; test: Growth inhibition of CT26 mouse colon cancer subcutaneously transplanted tumor model, alone and combined with PD-L1 monoclonal antibody; type: in vivo, BALB/c mice; conditions: 21st day after administration, Example 2 60 mg/kg gavage once a day, Anti-PD-L1 200 μg each i.p. once every 3 days, 4 times; for IR(%), tumor inhibition percentage: by tumor weight
Experimental: The anti-tumor effect of the combination of the compound of Example 2 and PD-L1 monoclonal antibody in CT26 mouse colon cancer cell subcutaneously transplanted tumor model was evaluated.
An appropriate amount of the compound of Example 2 was weighed into a centrifuge tube, and 5% NMP 95% PEG400 was added. The mixture was vortexed to a fully soluble solution with a concentration of 6 mg/mL, which was prepared before immediate use.
Recombinant anti-PD-L1 whole mouse monoclonal antibody (InVivoMAb anti-mouse PD-L1 (B7-H1), purchased from Bioxcell, Clone 10F.9G2, catalog number: BE0101, batch number: 720619F1) was diluted with PBS so that the concentration was 1 mg/mL, which was prepared before immediate use.
BALB/c mice, female, 7-8 weeks (the age of mice at the time of tumor cell inoculation), weight of 18.4-19.1 g, 9 mice in each group, purchased from Zhejiang Weitong Lihua Laboratory Animal Technology Co., Ltd., license number: SOCK (Zhejiang) 2019-0001.
CT26 mouse colon cancer cells were cultured in RPMI-1640 culture medium containing 10% fetal bovine serum, 100 U/mL penicillin and 100 μg/mL streptomycin. CT26 cells in the exponential growth phase were collected and resuspended in PBS to a suitable concentration for subcutaneous tumor inoculation in mice.
Female BALB/c mice were subcutaneously inoculated with 2.5×10^5 CT26 cells on the back. When the average tumor volume was about 127 mm^3, they were randomly grouped according to the size of the tumor. They were divided into 4 groups with each group of 9 animals, and the day of grouping was defined as day 0.
After tumor inoculation, routine monitoring included the effects of tumor growth and treatment on the normal behavior of animals. The specific content included the activity of the experimental animal, food and water consumption, weight gain or loss, abnormal conditions of eyes, coat and others. The tumor volume was weighed and measured twice a week. The administration period was 21 days. On the 21st day, the mice were weighed and the tumor volume was measured. The next day after the tumor volume was measured, the mice were sacrificed and tumor masses were taken and weighed. The tumor volume (TV), relative tumor volume (RTV), relative tumor growth rate (T/C), tumor inhibition percentage (IR) and relative tumor inhibition rate (TGI) were calculated, and statistical testing was performed. The calculation formulas were as follows:
(1) TV=1/2×a×b^2, where a and b represent the length and width of the tumor respectively;
(2) RTV=Vt/V0, where V0 is the tumor volume measured during administration in grouping (i.e. d0), and Vt is the tumor volume during each measurement;

recombinant human PI3Kβ = recombinant human PI3Kβ (Homo sapiens (Human), UniProt P42338); test: Inhibitory activity on PI3K kinase (ADP-Glo Kinase Assay)
Source text: The following method is used to determine the degree of inhibition of recombinant human PI3Kα, PI3Kβ, PI3Kγ and PI3Kδ kinase activity by the compounds of the present invention under in vitro conditions. Promega's ADP-Glo Kinase Assay Kit (Cat. No. V9102) was used in this method. The above kit was a luminescence kinase detection kit, which was used to detect the ADP content produced by the kinase reaction. The ADP content was positively correlated with the kinase activity. By measuring the ADP content, the inhibition of the compound on the activity of PI3Kα, PI3Kβ, PI3Kγ and PI3Kδ kinases was reflected. […] Recombinant human PI3Kα, PI3Kγ, and PI3Kδ were purchased from Invitrogen, and PI3Kβ was purchased from Promega (category numbers were PI3Kα: PV4788; PI3Kβ: V1751; PI3Kγ: PV4786 and PI3Kδ: PV6451 separately).

PI3Kα(C2C12), sequence (P42337 whole entry): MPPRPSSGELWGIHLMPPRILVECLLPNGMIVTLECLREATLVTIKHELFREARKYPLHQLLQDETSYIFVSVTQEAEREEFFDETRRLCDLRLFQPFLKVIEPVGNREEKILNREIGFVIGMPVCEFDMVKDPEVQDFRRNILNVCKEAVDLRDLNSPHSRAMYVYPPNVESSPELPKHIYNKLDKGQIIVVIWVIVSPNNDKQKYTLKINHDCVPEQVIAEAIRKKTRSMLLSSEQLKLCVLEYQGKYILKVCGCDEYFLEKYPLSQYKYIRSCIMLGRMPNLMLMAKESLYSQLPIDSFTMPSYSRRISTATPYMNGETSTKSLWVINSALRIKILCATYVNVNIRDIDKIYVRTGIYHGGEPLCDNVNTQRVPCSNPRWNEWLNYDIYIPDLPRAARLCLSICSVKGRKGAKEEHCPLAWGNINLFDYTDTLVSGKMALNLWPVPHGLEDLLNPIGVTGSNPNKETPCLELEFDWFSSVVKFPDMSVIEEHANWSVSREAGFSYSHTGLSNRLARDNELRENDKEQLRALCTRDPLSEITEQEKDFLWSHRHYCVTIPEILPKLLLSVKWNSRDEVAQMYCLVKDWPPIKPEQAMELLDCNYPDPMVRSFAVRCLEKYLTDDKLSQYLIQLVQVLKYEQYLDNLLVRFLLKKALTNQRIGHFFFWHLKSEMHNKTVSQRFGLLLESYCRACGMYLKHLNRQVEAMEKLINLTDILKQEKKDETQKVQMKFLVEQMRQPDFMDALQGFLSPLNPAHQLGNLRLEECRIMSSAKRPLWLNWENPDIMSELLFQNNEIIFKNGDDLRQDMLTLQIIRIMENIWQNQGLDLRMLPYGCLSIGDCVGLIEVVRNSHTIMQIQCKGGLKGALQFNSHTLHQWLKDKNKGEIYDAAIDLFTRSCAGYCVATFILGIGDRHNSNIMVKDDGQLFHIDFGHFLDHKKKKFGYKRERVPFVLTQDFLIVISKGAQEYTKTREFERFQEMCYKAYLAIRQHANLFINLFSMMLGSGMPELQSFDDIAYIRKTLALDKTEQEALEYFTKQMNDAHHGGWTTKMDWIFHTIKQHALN
PI3Kα(C2C12), sequence (P26450 whole entry partner): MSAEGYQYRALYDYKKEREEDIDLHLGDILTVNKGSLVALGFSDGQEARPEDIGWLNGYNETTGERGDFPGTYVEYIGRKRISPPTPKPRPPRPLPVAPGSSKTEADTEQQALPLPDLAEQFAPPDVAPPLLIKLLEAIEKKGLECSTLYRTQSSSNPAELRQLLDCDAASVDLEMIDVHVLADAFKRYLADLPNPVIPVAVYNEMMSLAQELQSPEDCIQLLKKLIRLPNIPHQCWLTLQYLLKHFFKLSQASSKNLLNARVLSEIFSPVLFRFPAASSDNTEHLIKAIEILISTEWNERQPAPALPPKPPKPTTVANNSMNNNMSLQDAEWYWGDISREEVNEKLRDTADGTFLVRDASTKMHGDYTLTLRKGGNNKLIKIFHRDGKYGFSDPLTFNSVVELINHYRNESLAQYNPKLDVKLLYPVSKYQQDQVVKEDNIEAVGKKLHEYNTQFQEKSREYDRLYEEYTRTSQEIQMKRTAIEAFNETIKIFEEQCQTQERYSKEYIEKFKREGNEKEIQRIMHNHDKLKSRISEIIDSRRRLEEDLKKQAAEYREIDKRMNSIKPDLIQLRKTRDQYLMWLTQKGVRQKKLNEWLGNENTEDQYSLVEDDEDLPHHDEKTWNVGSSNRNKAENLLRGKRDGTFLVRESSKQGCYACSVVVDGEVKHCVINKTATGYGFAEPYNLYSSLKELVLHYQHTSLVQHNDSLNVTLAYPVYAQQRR

IC50 (PI3Kα(C2C12)): 4770 nM | IC50 (PI3Kβ(PC-3)): 878 nM | IC50 (PI3Kγ(Raw264.7); Raw264.7 cells, C5a stimulated, p-AKT (pS473)): 3.42 nM | IC50 (PI3Kα)/IC50(PI3Kγ) (PI3Kγ(Raw264.7); cell selectivity, C2C12 vs Raw264.7): 1394 | IC50 (PI3Kβ)/IC50(PI3Kγ) (PI3Kγ(Raw264.7); cell selectivity, PC-3 vs Raw264.7): 257 | IC50 (PI3Kδ)/IC50(PI3Kγ) (PI3Kγ(Raw264.7); cell selectivity, Raji vs Raw264.7): 104 | IC50 (PI3Kδ(Raji)): 355 nM | IC50 (recombinant human PI3Kβ): 466 nM
SMILES: C[C@H](NC(=O)c1c(N)nn2cccnc12)c1nc2cccc(C#Cc3cnn(C4CC4)c3)c2c(=O)n1-c1ccccc1 [Example 2, (S)-2-amino-N-(1-(5-((1-cyclopropyl-1H-pyrazol-4-yl)ethynyl)-4-oxo-3-phenyl-3,4-dihydroquinazolin-2-yl)ethyl)pyrazolo[1,5-a]pyrimidine-3-carboxamide]
RTV (x ± S), relative tumor volume [1]: 5.47 ± 1.05 | TGI (%), relative tumor inhibition rate [1]: 51.2% | Tumor weight (g) (x ± S) [1]: 0.5942 ± 0.1730 g | TV (x ± S), tumor volume ([1]; in mm³ (unit assumed)): 723.47 ± 159.50 | IR(%), tumor inhibition percentage ([1]; listed as Compound of Example 2): 52.1% | IR(%), tumor inhibition percentage ([1]; listed as compound of Example 2): 52.1%
